6 compounds from patent US20250314639A1, “SYSTEMS AND METHODS FOR HIGH THROUGHPUT SINGLE MOLECULE TRACKING IN LIVING CELLS” (EIKON THERAPEUTICS, INC., priority 2022, published 2025) can be followed below.

Assay [1] deals with T1, ER (Homo sapiens, UniProt P03372).
T1 construct: expressed in transfected cells; host or cells: U2OS
T1 sequence (P03372 1-595): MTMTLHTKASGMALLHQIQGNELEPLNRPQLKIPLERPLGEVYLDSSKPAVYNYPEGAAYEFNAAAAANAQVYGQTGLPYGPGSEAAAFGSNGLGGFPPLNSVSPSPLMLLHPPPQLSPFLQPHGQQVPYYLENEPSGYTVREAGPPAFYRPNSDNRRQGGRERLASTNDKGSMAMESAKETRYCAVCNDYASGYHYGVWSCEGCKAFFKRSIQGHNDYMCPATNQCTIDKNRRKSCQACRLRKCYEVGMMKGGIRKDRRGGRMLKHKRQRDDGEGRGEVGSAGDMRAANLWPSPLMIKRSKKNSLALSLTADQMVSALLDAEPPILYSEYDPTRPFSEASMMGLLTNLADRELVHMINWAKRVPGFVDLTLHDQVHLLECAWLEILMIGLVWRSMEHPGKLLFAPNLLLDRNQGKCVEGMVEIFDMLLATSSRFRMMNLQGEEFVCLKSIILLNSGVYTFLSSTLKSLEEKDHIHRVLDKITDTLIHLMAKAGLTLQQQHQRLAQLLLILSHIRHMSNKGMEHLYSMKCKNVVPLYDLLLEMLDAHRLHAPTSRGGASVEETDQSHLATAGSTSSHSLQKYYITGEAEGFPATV
Nature of the assay: htSMT change in fbound of Halo-ER in U2OS cells. It counts as cell-based. Particulars: for change in fbound of ER: versus DMSO, bioactive screen at 1 μM compound.

For assay [2], the target named is T1, ER. Nature of the assay: kinetic SMT (kSMT) of ER after compound addition. Type of assay: cell-based. The settings on record: for t1/2 of increase in fbound: 100 nM compound, single exponential fit; for time at which overall effect on ER movement reaches a plateau: FIG. 16C.
Assay [3] addresses T1, ER. Nature of the assay: residence time imaging of ER-Halo cells (track length survival). Type of assay: cell-based. Particulars: 100 nM HSP90 inhibition, versus DMSO, FIG. 16E.
In assay [4] the target is T1, ER. Nature of the assay: Western blot of ER after 24 hours compound treatment. Type of assay: cell-based. The settings on record: 100 nM fulvestrant, MCF7, T47d, Halo-ER U2OS. The procedure: Cells were grown in the same conditions as described previously. […] Cells are lysed in 200 μL 1× Cell Lysis Buffer (catalogue number 9803, Cell Signaling). Protein lysate concentration is then determined using BCA protein assay kit (Catalog number 23225, Pierce™ BCA Protein Assay Kit) following manufacturer instructions. Capillary Western Immunoassay were performed using Jess Protein Simple following manufacturer's instruction (protein simple, USA). Levels of αER (1:100, RM-9101) were normalized to loading control β-tubulin (1:100, NC0244815 LI-COR 92642213, Thermo Fisher). The peaks were analyzed with the Compass software (Protein Simple, USA).

The target in a further assay is T2, GR (Homo sapiens, UniProt P04150).
T2 construct: Because U2OS cells express GR endogenously; endogenous in cells; host or cells: U2OS (CRISPR/Cas9 knock-in at the endogenous locus)
T2 sequence (P04150 1-777): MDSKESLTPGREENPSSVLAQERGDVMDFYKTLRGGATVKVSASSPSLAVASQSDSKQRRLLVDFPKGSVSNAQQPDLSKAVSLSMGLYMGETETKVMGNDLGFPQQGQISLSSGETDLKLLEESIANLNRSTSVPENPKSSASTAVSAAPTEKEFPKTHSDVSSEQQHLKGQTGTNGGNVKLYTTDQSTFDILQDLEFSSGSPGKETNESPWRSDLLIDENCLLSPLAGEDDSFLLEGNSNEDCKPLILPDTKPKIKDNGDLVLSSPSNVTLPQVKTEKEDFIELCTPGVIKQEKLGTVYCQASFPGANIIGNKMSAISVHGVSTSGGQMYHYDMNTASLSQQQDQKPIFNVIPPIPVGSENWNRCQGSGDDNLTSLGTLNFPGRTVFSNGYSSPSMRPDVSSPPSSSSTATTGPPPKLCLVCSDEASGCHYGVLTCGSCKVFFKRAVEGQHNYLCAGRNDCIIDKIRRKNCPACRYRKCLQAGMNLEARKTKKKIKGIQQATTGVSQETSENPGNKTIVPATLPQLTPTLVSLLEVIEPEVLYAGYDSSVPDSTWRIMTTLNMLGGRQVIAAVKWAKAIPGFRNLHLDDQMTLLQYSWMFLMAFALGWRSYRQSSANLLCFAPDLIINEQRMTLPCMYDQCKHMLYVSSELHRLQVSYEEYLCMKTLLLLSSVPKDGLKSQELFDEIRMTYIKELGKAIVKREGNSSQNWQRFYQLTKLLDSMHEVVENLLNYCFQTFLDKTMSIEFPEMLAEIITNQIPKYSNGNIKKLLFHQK
The assay can be described thus: htSMT fbound of GR-HaloTag in U2OS cells. Type of assay: cell-based. Particulars: 1 μM antagonist, singly or co-administered with the cognate agonist. An excerpt:
Where appropriate, compounds were serially diluted in an Echo Qualified 384-Well Low Dead Volume Source Microplate (0018544, Beckman Coulter) to generate dose-titration source material.

A further assay addresses AR (Homo sapiens, UniProt P10275).

Entries after “also recorded” stand apart in the source; their conditions may differ.

AR, sequence (P10275 whole entry): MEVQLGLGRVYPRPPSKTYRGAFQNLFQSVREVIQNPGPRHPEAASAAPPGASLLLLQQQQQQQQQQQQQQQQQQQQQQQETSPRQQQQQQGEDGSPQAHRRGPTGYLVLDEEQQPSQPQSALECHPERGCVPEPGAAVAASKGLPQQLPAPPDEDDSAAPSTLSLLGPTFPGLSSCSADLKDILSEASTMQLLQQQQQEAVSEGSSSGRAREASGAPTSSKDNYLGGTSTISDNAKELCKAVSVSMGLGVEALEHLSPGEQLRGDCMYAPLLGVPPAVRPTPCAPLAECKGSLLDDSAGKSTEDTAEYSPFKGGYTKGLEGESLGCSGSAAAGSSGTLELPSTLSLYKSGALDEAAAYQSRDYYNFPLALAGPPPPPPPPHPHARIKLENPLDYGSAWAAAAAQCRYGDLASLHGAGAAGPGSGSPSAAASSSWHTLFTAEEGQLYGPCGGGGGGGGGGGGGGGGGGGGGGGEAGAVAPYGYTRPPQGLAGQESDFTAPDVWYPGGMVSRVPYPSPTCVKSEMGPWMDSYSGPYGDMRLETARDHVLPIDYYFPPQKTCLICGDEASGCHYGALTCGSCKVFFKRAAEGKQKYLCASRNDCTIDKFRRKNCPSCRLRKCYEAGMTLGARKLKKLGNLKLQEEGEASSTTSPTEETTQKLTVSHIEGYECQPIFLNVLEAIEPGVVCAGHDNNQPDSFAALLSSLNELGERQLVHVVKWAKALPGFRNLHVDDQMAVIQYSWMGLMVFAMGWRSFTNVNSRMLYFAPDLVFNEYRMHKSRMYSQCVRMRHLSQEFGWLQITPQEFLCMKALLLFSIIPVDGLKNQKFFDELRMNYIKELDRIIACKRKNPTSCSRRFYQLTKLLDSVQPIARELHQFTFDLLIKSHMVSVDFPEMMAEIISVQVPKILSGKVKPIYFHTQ

On to `COc1cccc(-c2cc(F)ccc2[C@H]2Cc3nc(N)nc(C)c3C(=O)N2)n1` [HSP990], for which, on ER [1], the “change in fbound of ER” value is reported as “an increase in fbound”. Moreover, on ER [2], the “t1/2 of increase in fbound” value amounted to 17.5 min and the “time at which overall effect on ER movement reaches a plateau” value is “plateau after an hour”. In addition, the “decrease in the total number of long binding events” value on ER [3] is “two”.

Consider `C[C@]12CC[C@@H]3c4ccc(O)cc4C[C@@H](CCCCCCCCC[S+]([O-])CCCC(F)(F)C(F)(F)F)[C@H]3[C@@H]1CC[C@@H]2O` (some centres unmarked) [fulvestrant], for which the “change in fbound of ER” value on ER [1] is reported as “caused an increase in fbound; also recorded: significantly increased fbound”. For the same compound, on ER [4], the “ER degradation (western blot)” value is listed as “leads to the degradation of ER”.

Consider 4-hydroxytamoxifen, for which, on ER [1] (compared with the SERDs fulvestrant and GDC-0927, FIG. 14D), the “maximal increase in fbound of ER” value is given as “lower maximal increases in fbound”. In addition, the “change in fbound of ER” value on ER [1] is “significantly increased fbound”.

As to `CN(C)c1ccc(C(c2ccc(N(C)C)cc2)c2cc([N+](=O)[O-])ccc2Cl)cc1` [AL082D06], the “change in chromatin binding (fbound) of GR” value on GR is listed as “decrease in chromatin binding”.

`CC(C)c1cc(-c2n[nH]c(=O)n2-c2ccc3c(ccn3C)c2)c(O)cc1O` [ganetespib]: the “change in fbound of ER” value at ER [1] was “an increase in fbound”. At ER [2], the “t1/2 of increase in fbound” value came out at 19.3 min and the “time at which overall effect on ER movement reaches a plateau” value was “plateau after an hour”. In addition, the “decrease in the total number of long binding events” value at ER [3] is “four”.

With `CC(O)c1cc(C(=O)N[C@@H](C)Cn2ccc(-c3ccc(C#N)c(Cl)c3)n2)[nH]n1` (some centres unmarked) [Darolutamide], the “change in chromatin binding (fbound) of AR” value at AR was “decrease in chromatin binding”.
